Results from PMC6146285 (Journal of pharmacological and toxicological methods, 2018).
Where two headings read alike, the source gives them in different places.

Key:
Assay type in all cases: cell-based, human
hiPSC-CMs = conditions: for Arrhythmia incidence by dose level: all sites and cell types tested; for FPDmax compared to pre-addition values: 30 min post compound addition, low risk compounds; for Arrhythmia: one site; for Inotropic effect (impedance signal): hiPSC-CMs; for Average % change in EFP amplitude / FPDmax: with increasing concentrations; for FPD prolongation: cell types other than CLS
[1] = test system: CDI (iCell Cardiomyocytes^2, Cellular Dynamics International) hiPSC-CMs
[2] = test system: PLR (Pluricyte Cardiomyocytes, Ncardia) hiPSC-CMs
[3] = test system: AXG (Cor.4U, Ncardia) hiPSC-CMs
[4] = test system: CLS (Cellartis Cardiomyocytes, Takara Bio Clontech) hiPSC-CMs
[5] = all sites and cell types, dose levels of Table 3

COc1ccc(CCN2CCC(Nc3nc4ccccc4n3Cc3ccc(F)cc3)CC2)cc1 [Astemizole]
Arrhythmia incidence by dose level (hiPSC-CMs; dose levels of Table 3): arrhythmia in most cases at dose 3, and almost all cases at dose 4

CN(C)CCCN1c2ccccc2Sc2ccc(Cl)cc21 [Chlorpromazine]
Arrhythmic events (hiPSC-CMs; independent of the cell type or site): did not induce arrhythmic events

COc1cc(N)c(Cl)cc1C(=O)NC1CCN(CCCOc2ccc(F)cc2)CC1OC (stereo not drawn) [Cisapride]
Arrhythmia incidence by dose level (hiPSC-CMs; dose levels of Table 3): arrhythmia in most cases at dose 3, and almost all cases at dose 4

CC[C@H]1OC(=O)[C@H](C)[C@@H](O[C@H]2C[C@@](C)(OC)[C@@H](O)[C@H](C)O2)[C@H](C)[C@@H](O[C@@H]2O[C@H](C)C[C@H](N(C)C)[C@H]2O)[C@](C)(OC)C[C@@H](C)C(=O)[C@H](C)[C@@H](O)[C@]1(C)O [Clarithromycin]
Arrhythmia incidence by dose level (hiPSC-CMs; dose levels of Table 3): arrhythmia in most cases at dose 3, and almost all cases at dose 4

CC(C)NCC(O)c1ccc(NS(C)(=O)=O)cc1 (stereo not drawn) [D,l Sotalol]
Arrhythmic events ([1]; CDI, 10 μM): EAD-like events and ectopic beats
BRCoV ([1]; CDI, post addition of 10 μM): large increase
Beat rate ([1]; CDI, post addition of 10 μM): decrease
Impedance amplitude ([1]; CDI, post addition of 10 μM): remains unchanged
Arrhythmia detection starting at (dose level) (hiPSC-CMs; [5]): dose 3

COc1ccc([C@@H]2Sc3ccccc3N(CCN(C)C)C(=O)[C@@H]2OC(C)=O)cc1 [Diltiazem]
FPDmax compared to pre-addition values (hiPSC-CMs): decrease

CC(C)N(CCC(C(N)=O)(c1ccccc1)c1ccccn1)C(C)C (stereo not drawn) [Disopyramide]
Arrhythmia (hiPSC-CMs; 10 and 100 μM): Arrhythmia was detected
Arrhythmia detection starting at (dose level) (hiPSC-CMs; [5]): dose 3
Inotropic effect (impedance signal) (hiPSC-CMs): negative inotropic effect
Average % change in impedance amplitude (hiPSC-CMs; with increasing concentration, all cell types at one site): decreased
Average % change in EFP amplitude (hiPSC-CMs; all cell types at one site): decreased
FPDmax (hiPSC-CMs; all cell types at one site): increased

O=c1[nH]c2ccccc2n1CCCN1CCC(n2c(=O)[nH]c3cc(Cl)ccc32)CC1 [Domperidone]
Arrhythmia (hiPSC-CMs; 0.3, 3 μM): arrhythmia is marked
Arrhythmia incidence by dose level (hiPSC-CMs; dose levels of Table 3): arrhythmia in most cases at dose 3, and almost all cases at dose 4
Inotropic effect (impedance signal) (hiPSC-CMs): negative inotropic effect
Average % change in EFP amplitude (hiPSC-CMs; all cell types at one site): decreased
FPDmax (hiPSC-CMs; all cell types at one site): increased

O=C(CCCN1CC=C(n2c(=O)[nH]c3ccccc32)CC1)c1ccc(F)cc1 [Droperidol]
Arrhythmic events ([2]; 0.3 μM): rolling EAD-like events
FPDmax ([2]; 0.3 μM): increase
Beat rate ([2]; post addition of 0.3 μM): decrease
Beat rate coefficient of variation ([2]; post addition of 0.3 μM): increase
Impedance amplitude ([2]; post addition of 0.3 μM): remains unchanged
Arrhythmia incidence by dose level (hiPSC-CMs; dose levels of Table 3): arrhythmia in most cases at dose 3, and almost all cases at dose 4

CCOC(=O)N1CCC(=C2c3ccc(Cl)cc3CCc3cccnc32)CC1 [Loratadine]
FPDmax compared to pre-addition values (hiPSC-CMs): not a significant change

COC(=O)C1=C(C)NC(C)=C(C(=O)OC)C1c1ccccc1[N+](=O)[O-] [Nifedipine]
Chronic effect on cell viability (base impedance) ([3]; AXG, recorded over 24 h): time and concentration-dependent reduction of cell viability
FPDmax compared to pre-addition values (hiPSC-CMs): decrease
Inotropic effect (impedance signal) (hiPSC-CMs): negative inotropic effect

CCOC(=O)C1=C(C)NC(C)=C(C(=O)OC)C1c1cccc([N+](=O)[O-])c1 (stereo not drawn) [Nitrendipine]
FPDmax compared to pre-addition values (hiPSC-CMs): decrease

Cc1nccn1CC1CCc2c(c3ccccc3n2C)C1=O (stereo not drawn) [Ondansetron]
Arrhythmia incidence by dose level (hiPSC-CMs; dose levels of Table 3): arrhythmia in most cases at dose 3, and almost all cases at dose 4

O=c1[nH]c2ccccc2n1C1CCN(CCCC(c2ccc(F)cc2)c2ccc(F)cc2)CC1 [Pimozide]
Arrhythmogenicity ([3]; site 4, AXG cells): not arrhythmogenic
Arrhythmia incidence by dose level (hiPSC-CMs; dose levels of Table 3): arrhythmia in most cases at dose 3, and almost all cases at dose 4

C=C[C@H]1C[N@@]2CC[C@H]1C[C@@H]2[C@@H](O)c1ccnc2ccc(OC)cc12 [Quinidine]
Arrhythmia detection starting at (dose level) (hiPSC-CMs; [5]): dose 2
Incidence of FPDmax>10% or > 30% started at (dose level) (hiPSC-CMs; [5]): dose 1

Cc1nc2n(c(=O)c1CCN1CCC(c3noc4cc(F)ccc34)CC1)CCCC2 [Risperidone]
Change in the FPD ([1]; CDI cells): > 10%
Change in the FPD ([3]; AXG cells): no significant change
Change in the FPD ([4]; CLS cells): no significant change

CC/C(=C(\c1ccccc1)c1ccc(OCCN(C)C)cc1)c1ccccc1 [Tamoxifen]
Decrease of average % change in EFP amplitude ([1]; CDI, 3 μM, one site): ~ 40%
Decrease of average % change in FPDmax ([1]; CDI, 3 μM, one site): ~ 40%
Increase in beat rate ([1]; CDI, 3 μM, one site): ~ 40%
Changes in average impedance signals ([1]; CDI, 0.3, 0.9 and 3 μM): No significant changes

CC(C)(C)c1ccc(C(O)CCCN2CCC(C(O)(c3ccccc3)c3ccccc3)CC2)cc1 (stereo not drawn) [Terfenadine]
Number of experiments with quiescence (hiPSC-CMs; other experiments): 4
Number of experiments with arrhythmia (hiPSC-CMs; site 4, AXG and site 4, CLS): 2

COc1cc2c(Nc3ccc(Br)cc3F)ncnc2cc1OCC1CCN(C)CC1 [Vandetanib]
Arrhythmia detection starting at (dose level) (hiPSC-CMs; [5]): dose 3

CN(CCOc1ccc(NS(C)(=O)=O)cc1)CCc1ccc(NS(C)(=O)=O)cc1 [dofetilide]
FPD prolongation upon application ([4]; CLS hiPSC-CMs, 0.5-10 nM): did not exhibit an expected FPD prolongation
FPD prolongation (hiPSC-CMs; 0.5 nM): approx. 10%
FPD prolongation (hiPSC-CMs; 10 nM, arrhythmia present): ~100%
Effect on FPD and arrhythmia (hiPSC-CMs; wells treated with 5 nM and 10 nM): prolongation of FPD and arrhythmia
